The target in experiment [1] is T1, EGFR (Homo sapiens, UniProt P00533).
T1 construct: made in house; host or cells: baculovirus expression system
Briefly: EGFR substrate phosphorylation enzyme assay (HTRF). Format: biochemical. The conditions noted are these: isolated enzyme, 20 μM ATP. The method, then:
Compounds of the present invention were tested for EGFR, ErbB-2, and ErbB4 protein tyrosine kinase Inhibitory activity in substrate phosphorylation assays using enzymes purified from a baculovirus expression system.
(§1) The method measures the ability of the isolated enzyme to catalyse the transfer of the γ-phosphate from ATP onto the tyrosine residue of a biotinylated synthetic peptide (biotin-Ahx-[…]-amide). The extent of tyrosine phosphorylation was measured using an anti-phosphotyrosine antibody, and quantified by homogenous time-resolved fluorescence (HTRF).
(§2) The enzymes were first diluted from their concentrated stock solutions into buffer containing 100 mM MOPS (pH7.5); 0.01% Tween-20; 0.1 mg/mL bovine serum albumin (BSA); and 80 nM EGFR, 100 nM ErbB2, or 100 nM ErbB4. The enzymes were incubated in this buffer for 30 minutes at room temperature before addition to the assay plates. Reactions were performed in black 384-well polystyrene flat-bottom plates in a final volume of 20 μL. Reaction mixtures contained 100 mM MOPS (pH 7.5), 2 mM MnCl2, 20 μM ATP, 0.01% Tween-20, 0.1 mg/mL (BSA), 0.8 μM peptide substrate, and 1 mM dithiothreitol. Reactions were initiated by adding enzyme. 0.4 nM EGRF, 5 nM ErbB2, and 0.5 nM ErbB4 were the final enzyme concentrations.
Reactions were allowed to proceed for 90 minutes and were then terminated by the addition of 20 μL 100 mM EDTA to each well. 40 μL/well of HTRF mix were then added to the assay plates for the detection of phosphorylated substrate.
Compounds under analysis were dissolved in Me2SO to 1.0 mM and serially diluted 1 to 3 with Me2SO through twelve dilutions. 1 μL of each concentration was transferred to the corresponding well of an assay plate.
Data were fitted with a curve described by: y=((Vmax*x)/(K+x))+Y2 where Vmax is the upper asymptote, Y2 is the Y intercept, and K is the IC50.
On the technique in general: Time-resolved FRET reads energy transfer from a long-lived donor to a nearby acceptor.

The target of experiment [2] is T2, ErbB2 (Homo sapiens, UniProt P04626).
T2 construct: made in house; host or cells: baculovirus expression system
Put plainly: ErbB2 substrate phosphorylation enzyme assay (HTRF). The note with it: isolated enzyme, 20 μM ATP. The format is biochemical. The method, then:
Compounds of the present invention were tested for EGFR, ErbB-2, and ErbB4 protein tyrosine kinase Inhibitory activity in substrate phosphorylation assays using enzymes purified from a baculovirus expression system. Reagent production was conducted essentially as described (Brignola, P. S., et al, (2002) J. Biol. Chem. v. 277 2, 1576-1585).
as §1, §2
Reactions were allowed to proceed for 90 minutes and were then terminated by the addition of 20 μL 100 mM EDTA to each well. 40 μL/well of HTRF mix were then added to the assay plates for the detection of phosphorylated substrate. Final assay concentrations were: 100 mM HEPES (pH7.5), 0.1 mg/mL BSA, 15 nM streptavidin-labeled allophycocyanin (PerkinElmer), and 1 nM europium-labeled anti-phosphotyrosine antibody (PerkinElmer). Assay plates were left unsealed and were counted in a Wallac Multilabel Counter 1420 (PerkinElmer).
Compounds under analysis were dissolved in Me2SO to 1.0 mM and serially diluted 1 to 3 with Me2SO through twelve dilutions. 1 μL of each concentration was transferred to the corresponding well of an assay plate. This creates a final compound concentration range from 0.00027 to 47.6 μM.
The data for dose responses were plotted as % Inhibition calculated with the data reduction formula 100*(1−(U1−C2)/(C1−C2)) versus concentration of compound where U is the unknown value, C1 is the average control value obtained for 4.76% DMSO, and C2 is the average control value obtained for 0.035 M EDTA. Data were fitted with a curve described by: y=((Vmax*x)/(K+x))+Y2 where Vmax is the upper asymptote, Y2 is the Y intercept, and K is the IC50. The results for reach compound were recorded as pIC50s, calculated as follows: pIC50=−Log10(K)

Structures are written as SMILES.

T2 sequence (P04626 676-1255 limits assumed): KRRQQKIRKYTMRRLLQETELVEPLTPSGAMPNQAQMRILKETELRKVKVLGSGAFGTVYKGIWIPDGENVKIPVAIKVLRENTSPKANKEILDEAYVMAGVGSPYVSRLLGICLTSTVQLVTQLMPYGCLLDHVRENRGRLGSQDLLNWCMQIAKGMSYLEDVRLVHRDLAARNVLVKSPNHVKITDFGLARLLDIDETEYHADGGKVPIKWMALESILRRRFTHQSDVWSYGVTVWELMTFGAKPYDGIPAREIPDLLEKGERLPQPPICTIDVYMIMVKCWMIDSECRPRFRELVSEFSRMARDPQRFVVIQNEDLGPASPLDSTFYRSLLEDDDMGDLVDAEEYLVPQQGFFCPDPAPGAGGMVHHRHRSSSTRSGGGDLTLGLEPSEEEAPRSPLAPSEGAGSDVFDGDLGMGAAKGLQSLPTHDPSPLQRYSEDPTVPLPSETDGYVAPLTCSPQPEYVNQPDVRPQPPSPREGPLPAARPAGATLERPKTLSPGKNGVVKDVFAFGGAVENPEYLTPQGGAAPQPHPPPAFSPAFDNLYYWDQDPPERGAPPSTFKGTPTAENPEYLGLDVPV
T1 sequence (P00533 669-1210 limits assumed): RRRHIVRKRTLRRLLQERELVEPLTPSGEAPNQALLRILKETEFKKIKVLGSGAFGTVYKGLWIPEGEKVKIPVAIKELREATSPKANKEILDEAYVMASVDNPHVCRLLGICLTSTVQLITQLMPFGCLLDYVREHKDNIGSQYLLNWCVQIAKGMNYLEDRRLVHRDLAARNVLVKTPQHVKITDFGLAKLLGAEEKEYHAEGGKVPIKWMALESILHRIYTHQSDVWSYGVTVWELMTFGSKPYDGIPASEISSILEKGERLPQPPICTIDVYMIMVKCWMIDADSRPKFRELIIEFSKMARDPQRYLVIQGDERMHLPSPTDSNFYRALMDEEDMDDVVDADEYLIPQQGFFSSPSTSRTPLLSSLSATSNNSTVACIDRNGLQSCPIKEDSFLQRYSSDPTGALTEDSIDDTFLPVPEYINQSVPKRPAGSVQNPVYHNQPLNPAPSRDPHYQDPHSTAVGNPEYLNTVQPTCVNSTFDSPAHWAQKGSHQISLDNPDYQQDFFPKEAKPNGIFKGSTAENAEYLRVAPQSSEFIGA

One may read the IC50 as the concentration that gives 50% inhibition. With `O=C(Nc1cccc(C#Cc2cncnc2Nc2ccc(OCc3cccc(F)c3)c(Cl)c2)n1)C(F)(F)F` [Example 100, N-(6-{[4-({3-Chloro-4-[(3-fluorobenzyl)oxy]phenyl}amino)pyrimidin-5-yl]ethynyl}pyridin-2-yl)-2,2,2-trifluoroacetamide], the 50% inhibitory concentration (IC50) in experiment [1] and in experiment [2] was less than 100 nM in each case. Take `COCc1cccc(C#Cc2cncnc2Nc2ccc(OCc3cccc(F)c3)c(Cl)c2)n1` [Example 80, N-{3-Chloro-4-[(3-fluorobenzyl)oxy]phenyl}-5-{[6-(methoxymethyl)-2-pyridinyl]ethynyl}-4-pyrimidinamine]: the IC50 in experiment [1] and in experiment [2] was more than 1000 nM in each case.

As for `Fc1cccc(COc2ccc(Nc3ncncc3/C=C/c3ccsc3)cc2Cl)c1` [Example 17, N-{3-Chloro-4-[(3-fluorobenzyl)oxy]phenyl}-5-[(E)-2-thien-3-yletheny]pyrimidin-4-amine], the IC50 in experiment [1] and in experiment [2] was less than 100 nM throughout. Regarding `Fc1cccc(COc2ccc(Nc3ncncc3C#Cc3cccc(CNCCCn4ccnc4)n3)cc2Cl)c1` [Example 78, N-{3-Chloro-4-[(3-fluorobenzyl)oxy]phenyl}-5-{[6-({[3-(1H-imidazol-1-yl)propyl]amino}methyl)-2-pyridinyl]ethynyl}-4-pyrimidinamine], the IC50 in experiment [1] and in experiment [2] was less than 100 nM each time. Regarding `O=C(NCCN1CCOCC1)NCc1cccc(C#Cc2cncnc2Nc2ccc(OCc3cccc(F)c3)c(Cl)c2)n1` [Example 89, N-({6-[(4-{3-Chloro-4-[(3-fluorobenzyl)oxy]anilino}-5-pyrimidinyl)ethynyl]-2-pyridinyl}methyl)-N′-[2-(4-morpholinyl)ethyl]urea], the IC50 in experiment [1] and in experiment [2] was less than 100 nM each time. On to `COc1ccc(/C=C/c2cncnc2Nc2ccc(OCc3cccc(F)c3)c(Cl)c2)cc1OC` [Example 21, N-{3-Chloro-4-[(3-fluorobenzyl)oxy]phenyl}-5-[(E)-2-(3,4-dimethoxyphenyl)ethenyl]pyrimidin-4-amine], for which the IC50 in experiment [1] and in experiment [2] was less than 100 nM throughout. In the case of `Fc1cccc(COc2ccc(Nc3ncncc3/C=C/c3ccncc3)cc2Cl)c1` [Example 14, N-{3-Chloro-4-[(3-fluorobenzyl)oxy]phenyl}-5-[(E)-2-pyridin-4-ylethenyl]pyrimidin-4-amine], the IC50 in experiment [1] and in experiment [2] was less than 100 nM in each case. `Nc1cccc(C#Cc2cncnc2Nc2ccc(OCc3cccc(F)c3)c(Cl)c2)n1` [Example 67, 5-[(6-Amino-2-pyridinyl)ethynyl]-N-(3-chloro-4-{[(3-fluorophenyl)methyl]oxy}phenyl)4-pyrimidinamine]: the IC50 in experiment [1] and in experiment [2] was less than 100 nM each time. Take `Nc1nccc(C#Cc2cncnc2Nc2ccc(OCc3cccc(F)c3)c(Cl)c2)n1` [Example 99, 4-{[4-({3-Chloro-4-[(3-fluorobenzyl)oxy]phenyl}amino)pyrimidin-5-yl]ethynyl}pyrimidin-2-amine]: in experiment [2], the IC50 was less than 100 nM.

In the case of `C(=C\c1cncnc1Nc1ccc2sc(Cc3ccccc3)nc2c1)/c1ccsc1` [Example 5, 2-Benzyl-N-{5-[(E)-2-thien-3-ylethenyl]pyrimidin-4-yl}-1,3-benzothiazol-5-amine], the IC50 in experiment [1] and in experiment [2] was more than 1000 nM each time. Take `COC(=O)CCC(=O)Nc1cccc(C#Cc2cncnc2Nc2ccc(OCc3cccc(F)c3)c(Cl)c2)n1` [Example 71, Methyl 4-({6-[(4-{3-chloro-4-[(3-fluorobenzyl)oxy]anilino}-5-pyrimidinyl)ethynyl]-2-pyridinyl}amino)-4-oxobutanoate]: the IC50 in experiment [1] and in experiment [2] was 100 to 1000 nM throughout.

On to `Fc1cccc(COc2ccc(Nc3ncncc3/C=C/c3ccccc3)cc2Cl)c1` [Example 22, N-{3-Chloro-4-[(3-fluorobenzyl)oxy]phenyl}-5-[(E)-2-phenylethenyl]pyrimidin-4-amine], for which the IC50 in experiment [1] and in experiment [2] was less than 100 nM in each case.

With `N=C(N)Nc1cccc(C#Cc2cncnc2Nc2ccc(OCc3cccc(F)c3)c(Cl)c2)c1` [Example 49, N-(3-{[4-({3-Chloro-4-[(3-fluorobenzyl)oxy]phenyl}amino)pyrimidin-5-yl]ethynyl}phenyl)guanidine], the IC50 in experiment [1] was 100 to 1000 nM; in experiment [2], less than 100 nM. In the same order, the values of `CS(=O)(=O)CCNC(=O)NCc1cccc(C#Cc2cncnc2Nc2ccc(OCc3cccc(F)c3)c(Cl)c2)n1` [Example 88, N-({6-[(4-{3-Chloro-4-[(3-fluorobenzyl)oxy]anilino}-5-pyrimidinyl)ethynyl]-2-pyridinyl}methyl)-N′-[2-(methylsulfonyl)ethyl]urea] are less than 100 nM and less than 100 nM. Turning to `Fc1cccc(COc2ccc(Nc3ncncc3C#Cc3cccc(CNCCN4CCOCC4)n3)cc2Cl)c1` [Example 76, N-{3-Chloro-4-[(3-fluorobenzyl)oxy]phenyl}-5-{[6-({[2-(4-morpholinyl)ethyl]amino}methyl)-2-pyridinyl]ethynyl}-4-pyrimidinamine], the half-maximal inhibitory concentration (IC50) in experiment [1] and in experiment [2] was 100 to 1000 nM throughout. Consider `CC(=O)Nc1cccc(/C=C/c2cncnc2Nc2ccc(OCc3cccc(F)c3)c(Cl)c2)c1` [Example 20, N-(3-{(E)-2-[4-({3-Chloro-4-[(3-fluorobenzyl)oxy]phenyl}amino)pyrimidin-5-yl]ethenyl}phenyl)acetamide], for which the IC50 in experiment [1] and in experiment [2] was less than 100 nM in each case.

With `CS(=O)(=O)CCNc1cccc(C#Cc2cncnc2Nc2ccc(OCc3cccc(F)c3)c(Cl)c2)n1` [Example 72, N-{3-Chloro-4-[(3-fluorobenzyl)oxy]phenyl}-5-[(6-{[2-(methylsulfonyl)ethyl]amino}-2-pyridinyl)ethynyl]-4-pyrimidinamine], the IC50 in experiment [1] and in experiment [2] was more than 1000 nM in each case. For `Fc1cccc(COc2ccc(Nc3ncncc3C#Cc3cccc(CN4CCCCC4)n3)cc2Cl)c1` [Example 92, N-{3-Chloro-4-[(3-fluorobenzyl)oxy]phenyl}-5-([6-(1-piperidinylmethyl)-2-pyridinyl]ethynyl}-4-pyrimidinamine], the IC50 in experiment [1] and in experiment [2] was less than 100 nM each time.

Regarding `C(=C\c1cncnc1Nc1ccc2c(cnn2Cc2ccccc2)c1)/c1cn[nH]c1` [Example 9, 1-Benzyl-N-{5-[(E)-2-(1H-pyrazol-4-yl)ethenyl]pyrimidin-4-yl}-1H-indazol-5-amine], the IC50 in experiment [1] and in experiment [2] was 100 to 1000 nM in each case.

Take `CN(C)CCCC(=O)Nc1cccc(C#Cc2cncnc2Nc2ccc(OCc3cccc(F)c3)c(Cl)c2)n1` [Example 70, N-{6-[(4-{3-Chloro-4-[(3-fluorobenzyl)oxy]anilino}-5-pyrimidinyl)ethynyl]-2-pyridinyl}-4-(dimethylamino)butanamide]: the IC50 in experiment [1] and in experiment [2] was less than 100 nM each time.

These data come from patent publication US20060205740A1, “Chemical compounds” (priority 2003, published 2006).
